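Growth conditions: 96-well plates. Treatment: test compound, 48 hours, 5 concentrations. Analysis: linear interpolation between bracketing concentrations; unreached endpoints set to highest concentration. Here, GI50 denotes the concentration required for 50% inhibition of growth.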 Activity calls are given as the source filed them. No stated cut-off is given here; in the data, active = GI50 up to about 1.1 µM and inactive = higher.
Experiments:
Test in all cases: inhibition of tumour cell growth, NCI panel, 48 h
[1] = test system: KM-20L2
[2] = test system: LXFL 529
[3] = test system: HOP-18
[4] = test system: DMS-273
[5] = test system: SNB-78
[6] = test system: DMS-114
[7] = test system: DLD-1
[8] = test system: XF498
[9] = test system: RXF 631

Structure (SMILES)	GI50 [1]	GI50 [2]	GI50 [3]	GI50 [4]	GI50 [5]	GI50 [6]	GI50 [7]	GI50 [8]	GI50 [9]
O=c1c2c(-c3ccccc3)c3ccccc3nc2cnn1-c1ccccc1	> 100 µM (inactive)	> 100 µM (inactive)	> 100 µM (inactive)	> 100 µM (inactive)	> 100 µM (inactive)	57.1 µM (inactive)			
CC/C(C)=C1\CCC(CN2CCOCC2)C1=O (stereo unspecified)	19.2 µM (inactive)	11.2 µM (inactive)	19 µM (inactive)	18.1 µM (inactive)	21.8 µM (inactive)	5.26 µM (inactive)	11.9 µM (inactive)	19.1 µM (inactive)	
NC(=O)c1ncn(CCN2CCN(C(=O)NCCCCCCNC(=O)N3CCN(CCn4cnc(C(N)=O)c4N)CC3)CC2)c1N	> 100 µM (inactive)	> 100 µM (inactive)	> 100 µM (inactive)	> 100 µM (inactive)	> 100 µM (inactive)		> 100 µM (inactive)	> 100 µM (inactive)	> 100 µM (inactive)
Cc1ccc(C)c(N2C/C(=N\NC(=O)CC#N)C(c3nc4ccccc4s3)C(=O)C2=O)c1 (stereo unspecified)	> 100 µM (inactive)	> 100 µM (inactive)	> 100 µM (inactive)	> 100 µM (inactive)	> 100 µM (inactive)	> 100 µM (inactive)	> 100 µM (inactive)	> 100 µM (inactive)	
COc1ccccc1/C=C1\CCC(CNc2ccc(Cl)cc2)C1=O (stereo unspecified)	0.661 µM (active)	0.226 µM (active)	16.5 µM (inactive)	1.74 µM (inactive)	19.5 µM (inactive)	4.08 µM (inactive)	1.31 µM (inactive)	27.9 µM (inactive)	
CC(=O)O[C@H]1[C@H](O[C@H]2CC[C@]34C[C@]35CC[C@]3(C)[C@@H]([C@@]6(C)CC[C@@H](C(C)(C)O)O6)[C@@H](O)C[C@@]3(C)[C@@H]5C[C@H](O[C@@H]3O[C@H](CO)[C@@H](O)[C@H](O)[C@H]3O)[C@H]4C2(C)C)OC[C@@H](O)[C@@H]1O	69.7 µM (inactive)	74.8 µM (inactive)	> 100 µM (inactive)	44.6 µM (inactive)	> 100 µM (inactive)	66.2 µM (inactive)	71.1 µM (inactive)	> 100 µM (inactive)	> 100 µM (inactive)
OCCOc1ccc(-c2cc(-c3ccccn3)nc(-c3ccccn3)c2)cc1	< 0.0383 µM (active)	0.376 µM (active)	0.166 µM (active)	0.143 µM (active)	2.83 µM (inactive)	0.0552 µM (active)		0.0387 µM (active)	0.465 µM (active)
O=C1c2ccccc2C(=O)N1CCn1ccc(NC(c2ccccc2)(c2ccccc2)c2ccccc2)nc1=O	14.1 µM (inactive)	28.4 µM (inactive)	24.2 µM (inactive)	17.3 µM (inactive)	30.8 µM (inactive)	18.4 µM (inactive)	19.1 µM (inactive)	13.9 µM (inactive)	15 µM (inactive)
O=C1CCC2(c3ccccc3)Nc3ncccc3N12 (stereo unspecified)	> 100 µM (inactive)	> 100 µM (inactive)			> 100 µM (inactive)	> 100 µM (inactive)	> 100 µM (inactive)	> 100 µM (inactive)	
CC(=O)Oc1ccccc1 [ACETIC ACID PHENYL ESTER]	> 100 µM (inactive)	> 100 µM (inactive)		> 100 µM (inactive)		> 100 µM (inactive)	> 100 µM (inactive)		> 100 µM (inactive)
CCCC1C(=O)C(CC)Cc2c(OC)ccc(OC)c21 (stereo unspecified)		> 100 µM (inactive)		> 100 µM (inactive)	> 100 µM (inactive)		> 100 µM (inactive)	> 100 µM (inactive)	> 100 µM (inactive)
ON1CCc2c([nH]c3ccccc23)C1c1ccc(Cl)cc1 (stereo unspecified)	21.7 µM (inactive)	24 µM (inactive)		31.3 µM (inactive)	33 µM (inactive)	19.4 µM (inactive)	25.2 µM (inactive)	22.6 µM (inactive)	
CCN(CC)CC(=O)N1CCc2c([nH]c3ccccc23)C1c1cccnc1 (stereo unspecified)	> 100 µM (inactive)	> 100 µM (inactive)	> 100 µM (inactive)	> 100 µM (inactive)	> 100 µM (inactive)	> 100 µM (inactive)	> 100 µM (inactive)	> 100 µM (inactive)	> 100 µM (inactive)
COc1ccc(N2C(=O)C(N3C(=O)C=CC3=O)C2C=O)cc1 (stereo unspecified)	> 100 µM (inactive)	> 100 µM (inactive)	> 100 µM (inactive)	> 100 µM (inactive)	> 100 µM (inactive)		> 100 µM (inactive)		
O=C(O)CCC(NC(=O)c1ccccc1)C(=O)O (stereo unspecified)	> 100 µM (inactive)	> 100 µM (inactive)	> 100 µM (inactive)	> 100 µM (inactive)	> 100 µM (inactive)	> 100 µM (inactive)	> 100 µM (inactive)	> 100 µM (inactive)	> 100 µM (inactive)
O=C(c1ccccc1)c1nc2ccc(Cl)cc2cc1C(Br)Br	0.25 µM (active)	0.216 µM (active)	0.344 µM (active)	0.286 µM (active)		1.79 µM (inactive)	0.203 µM (active)	0.933 µM (active)	
COC(=O)C(CC1=C(O)Nc2ccccc2N1)/C(=N/NC(N)=O)C(=O)Nc1ccccc1C (stereo unspecified)	> 100 µM (inactive)	69.8 µM (inactive)	> 100 µM (inactive)	17 µM (inactive)	> 100 µM (inactive)	12.9 µM (inactive)	41.4 µM (inactive)		
COc1cc(C)c2c(c1)CN1CN2Cc2cc(OC)cc(C)c21		60 µM (inactive)		38.2 µM (inactive)	56.8 µM (inactive)	21.5 µM (inactive)	31.4 µM (inactive)		
N#CCc1cccc(CC#N)c1Br	> 100 µM (inactive)	> 100 µM (inactive)		> 100 µM (inactive)	> 100 µM (inactive)	> 100 µM (inactive)	> 100 µM (inactive)	> 100 µM (inactive)	
NC(=O)N/N=C/C(=C/Nc1ccccc1)[N+](=O)[O-]	> 100 µM (inactive)	> 100 µM (inactive)	> 100 µM (inactive)	> 100 µM (inactive)		> 100 µM (inactive)	> 100 µM (inactive)	> 100 µM (inactive)	
COc1cc(C[S+]2CCCC2)c(SC)cc1C[S+]1CCCC1	> 100 µM (inactive)	> 100 µM (inactive)			> 100 µM (inactive)	> 100 µM (inactive)	> 100 µM (inactive)	74.5 µM (inactive)	> 100 µM (inactive)
COc1ccc(C23c4ccc(OC)cc4CC2(c2ccc([N+](=O)[O-])cc2)Cc2cc(OC)ccc23)cc1 (stereo unspecified)	> 15.7 µM (inactive)	> 54.5 µM (inactive)	1.17 µM (inactive)	> 62.2 µM (inactive)	> 100 µM (inactive)	> 50 µM (inactive)	> 22.8 µM (inactive)	> 100 µM (inactive)	
Cn1c2cccc3nnc4cccc(c4c32)n1C	> 100 µM (inactive)	> 100 µM (inactive)		> 100 µM (inactive)	> 100 µM (inactive)	> 100 µM (inactive)	> 100 µM (inactive)	> 100 µM (inactive)	> 100 µM (inactive)
COc1nc(NC2OC(COC(C)=O)C(OC(C)=O)C(OC(C)=O)C2OC(C)=O)c2c(OC(C)=O)cc(=O)oc2n1 (stereo unspecified)	> 100 µM (inactive)	> 100 µM (inactive)	> 100 µM (inactive)	> 100 µM (inactive)	> 100 µM (inactive)	> 100 µM (inactive)	> 100 µM (inactive)	> 100 µM (inactive)	
O=C(NC1C2CC3CC(C2)CC1C3)c1ccncn1 (stereo unspecified)	> 100 µM (inactive)	> 100 µM (inactive)		> 100 µM (inactive)	> 100 µM (inactive)	> 100 µM (inactive)	> 100 µM (inactive)		> 100 µM (inactive)
COC(=O)C1C2CC3C(OC(=O)C31)C2OC(=O)[C@](OC)(c1ccccc1)C(F)(F)F (stereo partly specified)	> 100 µM (inactive)	> 100 µM (inactive)		> 100 µM (inactive)	> 100 µM (inactive)	> 100 µM (inactive)	> 100 µM (inactive)	> 100 µM (inactive)	> 100 µM (inactive)
CCN(CC)CCCN1CCc2c([nH]c3ccccc23)C1c1cccnc1 (stereo unspecified)	> 100 µM (inactive)	> 100 µM (inactive)		> 100 µM (inactive)	> 100 µM (inactive)	> 100 µM (inactive)	> 100 µM (inactive)	5.22 µM (inactive)	> 100 µM (inactive)
CCOC(=O)c1cnc2c(ccc3ncccc32)c1NCCCN(CC)CC	34.2 µM (inactive)	> 100 µM (inactive)	> 100 µM (inactive)	54.1 µM (inactive)	> 100 µM (inactive)		> 100 µM (inactive)	> 100 µM (inactive)	
N#Cc1c([N+](=O)[O-])cc(C(F)(F)F)cc1[N+](=O)[O-]	17.1 µM (inactive)	2.07 µM (inactive)	11.2 µM (inactive)	4.49 µM (inactive)	2.07 µM (inactive)	1.88 µM (inactive)	3.87 µM (inactive)	1.83 µM (inactive)	9.79 µM (inactive)

— ChEMBL document CHEMBL1201862, “PubChem BioAssay data set” (2004)
